Measurements taken from PMC4402678, “Twins in spirit - episode I: comparative preclinical evaluation of [^68Ga]DOTATATE and [^68Ga]HA-DOTATATE” (EJNMMI Research, 2015).
Read-outs that look alike come from different tables or passages of the source.

Assays:
[1] = mouse, in vivo, iv, Biodistribution Lung, Control
[2] = Biodistribution in AR42J tumor-bearing nude mice; details: mouse, 60 min p.i.
[3] = system: AR42J tumor-bearing nude mice; test: Biodistribution in AR42J tumor-bearing nude mice; details: 60 min p.i.
hsst1 = target: T1, hsst1 (Homo sapiens, UniProt P30872); test: Competition binding, hsst1 membrane preparations (Millipore), [125I]SST-28 radioligand; details: CHO cell membranes (Millipore), [Leu8,D-Trp22,[125I]Tyr25]-somatostatin 28 radioligand; IC50 ± SD; read-out: IC50 hsst 1
T1 construct: purchased Millipore (Schwalbach, Germany), ChemiSCREEN membranes; host or cells: CHO cells stably transfected
Procedure: (§1) Cell membrane preparations of cells expressing the human sst1–5 were obtained from Millipore (Schwalbach, Germany) and PerkinElmer (Rodgau, Germany). Competition binding studies were performed in close analogy to the manufacturer’s protocol. […] To each well, 10 μL of (Leu^8,D-Trp^22,[^125I]Tyr^25)-somatostatin-28 in binding buffer (approx. 100,000 cpm) were added. Then, 5 μg of cell membrane in 80 μL of binding buffer were added per well and incubated for 60 min at RT. The final radioligand concentration in the incubation mixture was 0.42 nM. Membranes were then aspired onto a glass fiber filtermat (Printed Filtermat B, Wallach, Turku, Finland), which had been preconditioned with 0.33% polyethylenimine for 30 min and then washed five times with 300 μL (per well) of wash buffer (50 mM HEPES, 500 mM NaCl, 0.1% BSA, buffered to pH 7.4 using 1 N NaOH), using a Mach II M Harvester 96 (Tomtec CE, Etten-Leur, The Netherlands). Membranes were washed ten times with 150 μL (per well) of wash buffer. The filtermat was then cut into squares containing the membrane from the respective wells, and membrane bound activity was counted in a γ-counter. IC50 values were calculated from bound activity [cpm] using PRISM 6 software (Graph Pad Software, San Diego, CA, USA).
(§2) Data were determined using membrane preparations of CHO cells stably transfected with the respective sst subtype.

hsst3 = target: T2, hsst3 (Homo sapiens, UniProt P32745); test: Competition binding, hsst3 membrane preparations (Millipore), [125I]SST-28 radioligand; details: CHO cell membranes (Millipore), [Leu8,D-Trp22,[125I]Tyr25]-somatostatin 28 radioligand; IC50 ± SD; read-out: IC50 hsst 3
T2 construct: purchased Millipore (Schwalbach, Germany), ChemiSCREEN membranes; host or cells: CHO cells stably transfected
Procedure: as §1, §2

[4] = pH 7.4, log P O/PBS
sst2 = system: sst2; set-up: method as in PMID 10774879; details: read-out: IC50 (sst2), receptor autoradiography; cited from earlier work
hsst5 [5] = target: T3, hsst5 (Homo sapiens, UniProt P35346); set-up: method as in PMID 10774879; details: read-out: hsst5 affinity, autoradiography assay; cited from earlier work
hsst5 [6] = target: T3, hsst5; test: Competition binding, hsst5 membrane preparations (Millipore), [125I]SST-28 radioligand; set-up: purchased Millipore (Schwalbach, Germany), ChemiSCREEN membranes; host or cells: CHO cells stably transfected; details: CHO cell membranes (Millipore), [Leu8,D-Trp22,[125I]Tyr25]-somatostatin 28 radioligand; IC50 ± SD; read-out: IC50 hsst 5
Procedure: as §1, §2

T3 sequence (P35346 whole entry): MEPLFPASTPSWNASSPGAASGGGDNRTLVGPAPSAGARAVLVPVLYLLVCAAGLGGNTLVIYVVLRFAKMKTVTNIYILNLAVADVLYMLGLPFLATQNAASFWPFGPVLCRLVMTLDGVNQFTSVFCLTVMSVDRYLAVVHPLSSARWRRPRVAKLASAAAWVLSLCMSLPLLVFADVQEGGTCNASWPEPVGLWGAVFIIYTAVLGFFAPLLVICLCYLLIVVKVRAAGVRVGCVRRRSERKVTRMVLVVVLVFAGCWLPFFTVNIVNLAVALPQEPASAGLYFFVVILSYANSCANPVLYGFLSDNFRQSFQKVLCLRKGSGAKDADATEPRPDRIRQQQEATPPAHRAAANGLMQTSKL
T1 sequence (P30872 whole entry): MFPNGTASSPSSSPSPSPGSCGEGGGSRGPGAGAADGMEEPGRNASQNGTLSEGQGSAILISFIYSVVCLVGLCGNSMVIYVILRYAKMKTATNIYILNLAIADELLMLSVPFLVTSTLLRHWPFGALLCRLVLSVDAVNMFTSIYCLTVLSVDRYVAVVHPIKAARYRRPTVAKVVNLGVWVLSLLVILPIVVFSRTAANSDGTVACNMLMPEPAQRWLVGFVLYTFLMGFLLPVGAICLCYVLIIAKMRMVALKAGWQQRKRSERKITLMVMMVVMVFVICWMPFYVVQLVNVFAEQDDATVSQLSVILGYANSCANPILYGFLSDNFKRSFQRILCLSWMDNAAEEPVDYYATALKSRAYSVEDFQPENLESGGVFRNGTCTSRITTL
T2 sequence (P32745 whole entry): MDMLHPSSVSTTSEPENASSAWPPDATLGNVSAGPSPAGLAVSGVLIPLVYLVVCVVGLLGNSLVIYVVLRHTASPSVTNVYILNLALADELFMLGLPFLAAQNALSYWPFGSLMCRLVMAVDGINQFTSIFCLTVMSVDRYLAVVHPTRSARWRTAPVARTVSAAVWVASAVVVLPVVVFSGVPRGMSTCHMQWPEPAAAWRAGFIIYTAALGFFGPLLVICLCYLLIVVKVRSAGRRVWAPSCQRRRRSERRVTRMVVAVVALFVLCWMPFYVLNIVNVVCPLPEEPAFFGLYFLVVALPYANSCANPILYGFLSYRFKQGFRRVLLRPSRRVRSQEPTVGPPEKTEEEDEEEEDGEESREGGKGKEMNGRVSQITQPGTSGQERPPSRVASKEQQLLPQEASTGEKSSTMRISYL

`C[C@@H](O)[C@H](NC(=O)[C@@H]1CSSC[C@H](NC(=O)[C@@H](Cc2ccccc2)NC(=O)CN2CCN(CC(=O)O)CCN(CC(=O)O)CCN(CC(=O)O)CC2)C(=O)N[C@@H](Cc2ccc(O)cc2)C(=O)N[C@H](Cc2c[nH]c3ccccc23)C(=O)N[C@@H](CCCCN)C(=O)N[C@@H]([C@@H](C)O)C(=O)N1)C(=O)O` [[^68Ga]DOTATATE, [^68Ga]DOTA-Tyr^3-octreotate, metal not drawn] showed a tissue uptake at 1 h [1] of 8.4 ± 1.4 %ID/g, a tissue uptake at 1 h ([2]; in vivo, Biodistribution AR42J tumor, Competition, coinjection of 20 μg/mouse unlabeled TOC, n = 3) of 2 ± 0.1 %ID/g and a tissue uptake at 1 h ([2]; in vivo, Biodistribution Adrenals, Competition, coinjection of 20 μg/mouse unlabeled TOC, n = 3) of 0.4 ± 0.1 %ID/g. It also gave a tissue uptake at 1 h ([2]; in vivo, Biodistribution Blood, Competition, coinjection of 20 μg/mouse unlabeled TOC, n = 3) of 0.4 ± 0.2 %ID/g, a tissue uptake at 1 h ([2]; in vivo, Biodistribution Heart, Competition, coinjection of 20 μg/mouse unlabeled TOC, n = 3) of 0.2 ± 0.1 %ID/g and a tissue uptake at 1 h ([2]; in vivo, Biodistribution Intestine, Competition, coinjection of 20 μg/mouse unlabeled TOC, n = 3) of 0.6 ± 0.2 %ID/g. It also gave a tissue uptake at 1 h ([2]; in vivo, Biodistribution Liver, Competition, coinjection of 20 μg/mouse unlabeled TOC, n = 3) of 0.2 ± 0.05 %ID/g, a tissue uptake at 1 h ([2]; in vivo, Biodistribution Lung, Competition, coinjection of 20 μg/mouse unlabeled TOC, n = 3) of 0.6 ± 0.2 %ID/g and a tissue uptake at 1 h ([2]; in vivo, Biodistribution Muscle, Competition, coinjection of 20 μg/mouse unlabeled TOC, n = 3) of 0.2 ± 0.1 %ID/g. For the same compound, the tissue uptake at 1 h ([2]; in vivo, Biodistribution Spleen, Competition, coinjection of 20 μg/mouse unlabeled TOC, n = 3) was 0.2 ± 0.03 %ID/g, the tissue uptake at 1 h ([2]; in vivo, Biodistribution Stomach, Competition, coinjection of 20 μg/mouse unlabeled TOC, n = 3) was 0.7 ± 0.1 %ID/g and the tissue uptake at 1 h ([2]; in vivo, iv, Biodistribution AR42J tumor, Control, tracer only, n = 5) was 24.1 ± 4.9 %ID/g. It also gave a tissue uptake at 1 h ([2]; in vivo, iv, Biodistribution Adrenals, Control, tracer only, n = 5) of 5.1 ± 1.4 %ID/g, a tissue uptake at 1 h ([2]; in vivo, iv, Biodistribution Blood, Control, tracer only, n = 5) of 0.3 ± 0.06 %ID/g and a tissue uptake at 1 h ([2]; in vivo, iv, Biodistribution Heart, Control, tracer only, n = 5) of 0.3 ± 0.04 %ID/g. For the same compound, the tissue uptake at 1 h ([2]; in vivo, iv, Biodistribution Intestine, Control, tracer only, n = 5) was 2.7 ± 0.8 %ID/g, the tissue uptake at 1 h ([2]; in vivo, iv, Biodistribution Kidney, Control, tracer only, n = 5) was 3.9 ± 0.5 %ID/g and the tissue uptake at 1 h ([2]; in vivo, iv, Biodistribution Liver, Control, tracer only, n = 5) was 0.5 ± 0.1 %ID/g. The tissue uptake at 1 h ([2]; in vivo, iv, Biodistribution Muscle, Control, tracer only, n = 5) was 0.3 ± 0.2 %ID/g, the tissue uptake at 1 h ([2]; in vivo, iv, Biodistribution Pancreas, Control, tracer only, n = 5) was 26.1 ± 4.9 %ID/g and the tissue uptake at 1 h ([2]; in vivo, iv, Biodistribution Stomach, Control, tracer only, n = 5) was 15.9 ± 3.9 %ID/g.
With `C[C@@H](O)[C@H](NC(=O)[C@@H]1CSSC[C@H](NC(=O)[C@@H](Cc2ccccc2)NC(=O)CN2CCN(CC(=O)O)CCN(CC(=O)O)CCN(CC(=O)O)CC2)C(=O)N[C@@H](Cc2ccc(O)c(I)c2)C(=O)N[C@H](Cc2c[nH]c3ccccc23)C(=O)N[C@@H](CCCCN)C(=O)N[C@@H]([C@@H](C)O)C(=O)N1)C(=O)O` [[^68Ga]HA-DOTATATE, [^68Ga]DOTA-3-iodo-Tyr^3-octreotate, metal not drawn] the tissue uptake at 1 h ([2]; AR42J tumor, intravenous, Biodistribution AR42J tumor, Competition, coinjection of 20 μg/mouse unlabeled TOC, n = 3) was 5.6 ± 0.7 %ID/g, the tissue uptake at 1 h ([2]; AR42J tumor, iv, 25 pmol/mouse, Biodistribution AR42J tumor, Control, tracer only, n = 5) was 33.6 ± 10.9 %ID/g and the tissue uptake at 1 h ([2]; adrenals, intravenous, Biodistribution Adrenals, Competition, coinjection of 20 μg/mouse unlabeled TOC, n = 3) was 1 ± 0.3 %ID/g. The tissue uptake at 1 h ([2]; adrenals, iv, 25 pmol/mouse, Biodistribution Adrenals, Control, tracer only, n = 5) was 10.8 ± 3.2 %ID/g, the tissue uptake at 1 h ([2]; blood, intravenous, Biodistribution Blood, Competition, coinjection of 20 μg/mouse unlabeled TOC, n = 3) was 2.5 ± 0.6 %ID/g and the tissue uptake at 1 h ([2]; blood, iv, 25 pmol/mouse, Biodistribution Blood, Control, tracer only, n = 5) was 0.7 ± 0.3 %ID/g. For the same compound, the tissue uptake at 1 h ([2]; heart, intravenous, Biodistribution Heart, Competition, coinjection of 20 μg/mouse unlabeled TOC, n = 3) was 1 ± 0.2 %ID/g, the tissue uptake at 1 h ([2]; heart, iv, 25 pmol/mouse, Biodistribution Heart, Control, tracer only, n = 5) was 0.5 ± 0.2 %ID/g and the tissue uptake at 1 h ([2]; intestine, intravenous, Biodistribution Intestine, Competition, coinjection of 20 μg/mouse unlabeled TOC, n = 3) was 0.8 ± 0.04 %ID/g. For the same compound, the tissue uptake at 1 h ([2]; intestine, iv, 25 pmol/mouse, Biodistribution Intestine, Control, tracer only, n = 5) was 4 ± 0.7 %ID/g, the tissue uptake at 1 h ([2]; kidney, intravenous, Biodistribution Kidney, Competition, coinjection of 20 μg/mouse unlabeled TOC, n = 3) was 17.1 ± 8.7 %ID/g and the tissue uptake at 1 h ([2]; kidney, iv, 25 pmol/mouse, Biodistribution Kidney, Control, tracer only, n = 5) was 5.3 ± 1 %ID/g. It also gave a tissue uptake at 1 h ([2]; liver, intravenous, Biodistribution Liver, Competition, coinjection of 20 μg/mouse unlabeled TOC, n = 3) of 1 ± 0.3 %ID/g, a tissue uptake at 1 h ([2]; liver, iv, 25 pmol/mouse, Biodistribution Liver, Control, tracer only, n = 5) of 1 ± 0.2 %ID/g and a tissue uptake at 1 h ([2]; lung, intravenous, Biodistribution Lung, Competition, coinjection of 20 μg/mouse unlabeled TOC, n = 3) of 2.5 ± 0.4 %ID/g. For the same compound, the tissue uptake at 1 h ([2]; lung, iv, 25 pmol/mouse, Biodistribution Lung, Control, tracer only, n = 5) was 13.2 ± 1 %ID/g, the tissue uptake at 1 h ([2]; muscle, intravenous, Biodistribution Muscle, Competition, coinjection of 20 μg/mouse unlabeled TOC, n = 3) was 0.6 ± 0.4 %ID/g and the tissue uptake at 1 h ([2]; muscle, iv, 25 pmol/mouse, Biodistribution Muscle, Control, tracer only, n = 5) was 0.2 ± 0.1 %ID/g. It also gave a tissue uptake at 1 h ([2]; pancreas, intravenous, Biodistribution Pancreas, Competition, coinjection of 20 μg/mouse unlabeled TOC, n = 3) of 1.5 ± 0.5 %ID/g, a tissue uptake at 1 h ([2]; pancreas, iv, 25 pmol/mouse, Biodistribution Pancreas, Control, tracer only, n = 5) of 36.6 ± 4.3 %ID/g and a tissue uptake at 1 h ([2]; spleen, intravenous, Biodistribution Spleen, Competition, coinjection of 20 μg/mouse unlabeled TOC, n = 3) of 0.7 ± 0.2 %ID/g. For the same compound, the tissue uptake at 1 h ([2]; spleen, iv, 25 pmol/mouse, Biodistribution Spleen, Control, tracer only, n = 5) was 1.9 ± 0.8 %ID/g, the tissue uptake at 1 h ([2]; stomach, intravenous, Biodistribution Stomach, Competition, coinjection of 20 μg/mouse unlabeled TOC, n = 3) was 1.9 ± 0.8 %ID/g and the tissue uptake at 1 h ([2]; stomach, iv, 25 pmol/mouse, Biodistribution Stomach, Control, tracer only, n = 5) was 21.7 ± 4.5 %ID/g.
In the case of `C[C@@H](O)[C@H](NC(=O)[C@@H]1CSSC[C@H](NC(=O)[C@@H](Cc2ccccc2)NC(=O)CN2CCN(CC(=O)O)CCN(CC(=O)O)CCN(CC(=O)O)CC2)C(=O)N[C@@H](Cc2ccc(O)c(I)c2)C(=O)N[C@H](Cc2c[nH]c3ccccc23)C(=O)N[C@@H](CCCCN)C(=O)N[C@@H]([C@@H](C)O)C(=O)N1)C(=O)O` [[^68Ga]HA-DOTATATE] [[^68Ga]DOTA-3-iodo-Tyr^3-octreotate, metal not drawn], the “Uptake in sst-expressing tissues (stomach, adrenals, pancreas, AR42J tumor), factor of increase compared to [^68Ga]DOTATATE” value [3] is reported as 1.4 to 2.
With `C[C@@H](O)[C@H](NC(=O)[C@@H]1CSSC[C@H](NC(=O)[C@@H](Cc2ccccc2)NC(=O)CN2CCN(CC(=O)O)CCN(CC(=O)O)CCN(CC(=O)O)CC2)C(=O)N[C@@H](Cc2ccc(O)cc2)C(=O)N[C@H](Cc2c[nH]c3ccccc23)C(=O)N[C@@H](CCCCN)C(=O)N[C@@H]([C@@H](C)O)C(=O)N1)C(=O)O` [^natGa-DOTATATE, metal not drawn, reference compound] the IC50 (hsst1) was > 1000 nM, the IC50 (hsst3) was > 1000 nM and the logP [4] was -3.69. For the same compound, the IC50 (sst2) was […], the IC50 (hsst5 [5]) was 200 to 500 nM and the IC50 (hsst5 [6]) was > 1000 nM.
With `C[C@@H](O)[C@H](NC(=O)[C@@H]1CSSC[C@H](NC(=O)[C@@H](Cc2ccccc2)NC(=O)CN2CCN(CC(=O)O)CCN(CC(=O)O)CCN(CC(=O)O)CC2)C(=O)N[C@@H](Cc2ccc(O)c(I)c2)C(=O)N[C@H](Cc2c[nH]c3ccccc23)C(=O)N[C@@H](CCCCN)C(=O)N[C@@H]([C@@H](C)O)C(=O)N1)C(=O)O` [^natGa-HA-DOTATATE, metal not drawn] the IC50 (hsst1) was > 1000 nM, the IC50 (hsst3) was > 1000 nM and the IC50 (hsst5 [6]) was 102 ± 65 nM.
